Experimental data reported in patent US9708314B2, “Heterocyclic amide compound” (NISSAN CHEMICAL INDUSTRIES, LTD., priority 2013, dated 2017).

Assays:
Assay type in all cases: in vivo
[1] = test system: directly sowed Oryza sativa; test: Test Example 3: effect on crop by application to foliage (Wagner pot, water depth 0.1-0.5 cm); details: Nineteenth Table; application to foliage; application herbicide amount 320 g/ha
Method in brief: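 Seeds were sown in alluvial soil in Wagner pots, grown for 14 days at 25–30 °C, then sprayed uniformly on foliage with the emulsified compound diluted to a given rate per hectare. Injury was graded three weeks after treatment from 0 (≤5%) to 5 (≥90%).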

Scirpus juncoides [2] = test: Test Example 2: herbicidal activity, application during weed generation in submerged conditions; details: Eighteenth Table; application herbicide amount 320 g/ha
Method in brief: (§1)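 Mixed sowings in flooded alluvial soil (4 cm water), greenhouse 25-30 °C; emulsifiable concentrate diluted in water applied to the water surface at the 1-2 leaf stage, rate in g/ha. Effect scored three weeks later on a 0-5 scale (5 = ≥90% herbicidal ratio, 0 = ≤5%).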

Monochoria vaginalis [3] = test: as above; details: Eighteenth Table; application herbicide amount 320 g/ha
Method in brief: as §1

[4] = test system: Echinochloa oryzacola Vasing.; test: as above; details: Eighteenth Table; application herbicide amount 320 g/ha
Method in brief: as §1

[5] = test system: transplanted Oryza sativa; test: Test Example 1: effect on crop, application before weed generation in submerged conditions; details: Seventeenth Table; for a: transplanted Oryza sativa (effect on crop grade): Application herbicide amount 320 g/ha; for a (transplanted Oryza sativa) effect on crop grade: application herbicide amount 320 g/ha
Method in brief: (§2)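 Pre-emergence application to water surface of submerged pots (4 cm depth, alluvial soil) on sowing day, with 2.5-leaf rice transplanted; emulsion diluted to g/ha rates. Grown in greenhouse at 25–30 °C; 0–5 herbicidal/crop-effect score after three weeks.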

Scirpus juncoides [6] = test: Test Example 1: herbicidal activity, application before weed generation in submerged conditions; details: Seventeenth Table; for B: Scirpus juncoides (herbicidal effect grade): Application herbicide amount 320 g/ha; for B (Scirpus juncoides) herbicidal ratio grade: application herbicide amount 320 g/ha
Method in brief: as §2

Monochoria vaginalis [7] = test: as above; details: Seventeenth Table; for C: Monochoria vaginalis (herbicidal effect grade): Application herbicide amount 320 g/ha; for C (Monochoria vaginalis) herbicidal ratio grade: application herbicide amount 320 g/ha
Method in brief: as §2

| SMILES | b (effect on crop grade) [1] | B (Scirpus juncoides) herbicidal ratio grade (Scirpus juncoides [2]) | C (Monochoria vaginalis) herbicidal ratio grade (Monochoria vaginalis [3]) | A (Echinochloa oryzicola Vasing.) herbicidal ratio grade [4] | a: transplanted Oryza sativa (effect on crop grade) [5] | B: Scirpus juncoides (herbicidal effect grade) (Scirpus juncoides [6]) | C: Monochoria vaginalis (herbicidal effect grade) (Monochoria vaginalis [7]) | a (transplanted Oryza sativa) effect on crop grade [5] | B (Scirpus juncoides) herbicidal ratio grade (Scirpus juncoides [6]) | C (Monochoria vaginalis) herbicidal ratio grade (Monochoria vaginalis [7]) |
| --- | --- | --- | --- | --- | --- | --- | --- | --- | --- | --- |
| Cc1nnc(NC(=O)c2ccc(C(F)(F)F)n3c(CC(=O)NC(C)C)nnc23)o1 [1-061] | 1 (Herbicidal ratio of 5% or more and less than 20%) | 1 (Herbicidal ratio of 5% or more and less than 20%) | 1 (Herbicidal ratio of 5% or more and less than 20%) | 0 (Herbicidal ratio of 5% or less (almost no effect)) |  |  |  |  |  |  |
| C=CCc1nnc2c(C(=O)Nc3nnco3)ccc(C(F)(F)F)n12 [1-158] |  | 3 (Herbicidal ratio of 40% or more and less than 70%) | 0 (Herbicidal ratio of 5% or less (almost no effect)) | 2 (Herbicidal ratio of 20% or more and less than 40%) | 0 (Herbicidal ratio of 5% or less (almost no effect)) | 4 (Herbicidal ratio of 70% or more and less than 90%) | 0 (Herbicidal ratio of 5% or less (almost no effect)) |  |  |  |
| Cc1nnc(NC(=O)c2ccc(C(F)(F)F)n3c(CC(F)(F)F)nnc23)o1 [1-162] |  | 1 (Herbicidal ratio of 5% or more and less than 20%) | 0 (Herbicidal ratio of 5% or less (almost no effect)) | 3 (Herbicidal ratio of 40% or more and less than 70%) | 0 (Herbicidal ratio of 5% or less (almost no effect)) | 2 (Herbicidal ratio of 20% or more and less than 40%) | 0 (Herbicidal ratio of 5% or less (almost no effect)) |  |  |  |
| C#CCN(C)c1nnc2c(C(=O)Nc3nnco3)ccc(C(F)(F)F)n12 [1-163] |  |  |  | 4 (Herbicidal ratio of 70% or more and less than 90%) | 2 (Herbicidal ratio of 20% or more and less than 40%) | 4 (Herbicidal ratio of 70% or more and less than 90%) | 4 (Herbicidal ratio of 70% or more and less than 90%) |  |  |  |
| CN(CCC#N)c1nnc2c(C(=O)Nc3nnco3)ccc(C(F)(F)F)n12 [1-164] |  | 4 (Herbicidal ratio of 70% or more and less than 90%) | 4 (Herbicidal ratio of 70% or more and less than 90%) | 4 (Herbicidal ratio of 70% or more and less than 90%) | 3 (Herbicidal ratio of 40% or more and less than 70%) | 5 (Herbicidal ratio of 90% or more (almost completely withered)) | 4 (Herbicidal ratio of 70% or more and less than 90%) |  |  |  |
| C=CCN(C)c1nnc2c(C(=O)Nc3nnc(C)o3)ccc(C(F)(F)F)n12 [1-166] | 2 (Herbicidal ratio of 20% or more and less than 40%) | 3 (Herbicidal ratio of 40% or more and less than 70%) |  | 2 (Herbicidal ratio of 20% or more and less than 40%) | 0 (Herbicidal ratio of 5% or less (almost no effect)) | 3 (Herbicidal ratio of 40% or more and less than 70%) | 2 (Herbicidal ratio of 20% or more and less than 40%) |  |  |  |
| Cc1nnc(NC(=O)c2ccc(C(F)(F)F)n3c(CC#N)nnc23)o1 [1-168] | 3 (Herbicidal ratio of 40% or more and less than 70%) | 2 (Herbicidal ratio of 20% or more and less than 40%) |  | 2 (Herbicidal ratio of 20% or more and less than 40%) |  |  |  |  |  |  |
| COCCc1nnc2c(C(=O)Nc3nnc(C)o3)ccc(C(F)(F)F)n12 [1-173] | 2 (Herbicidal ratio of 20% or more and less than 40%) | 2 (Herbicidal ratio of 20% or more and less than 40%) | 2 (Herbicidal ratio of 20% or more and less than 40%) | 3 (Herbicidal ratio of 40% or more and less than 70%) |  |  |  |  |  |  |
| Cn1nnnc1NC(=O)c1ccc(C(F)(F)F)n2c(SC3CCCC3)nnc12 [2-096] |  | 3 (Herbicidal ratio of 40% or more and less than 70%) | 3 (Herbicidal ratio of 40% or more and less than 70%) | 3 (Herbicidal ratio of 40% or more and less than 70%) | 3 (Herbicidal ratio of 40% or more and less than 70%) | 5 (Herbicidal ratio of 90% or more (almost completely withered)) | 4 (Herbicidal ratio of 70% or more and less than 90%) |  |  |  |
| Cn1nnnc1NC(=O)c1ccc(C(F)(F)F)n2c(SCc3ccc(Cl)nc3)nnc12 [2-097] |  | 2 (Herbicidal ratio of 20% or more and less than 40%) | 2 (Herbicidal ratio of 20% or more and less than 40%) | 0 (Herbicidal ratio of 5% or less (almost no effect)) | 1 (Herbicidal ratio of 5% or more and less than 20%) | 4 (Herbicidal ratio of 70% or more and less than 90%) | 3 (Herbicidal ratio of 40% or more and less than 70%) |  |  |  |
| CCSc1nnc2c(C(=O)Nc3nnnn3CCOC)ccc(C(F)(F)F)n12 [2-098] |  | 4 (Herbicidal ratio of 70% or more and less than 90%) | 3 (Herbicidal ratio of 40% or more and less than 70%) | 5 (Herbicidal ratio of 90% or more (almost completely withered)) |  |  |  | 2 (Herbicidal ratio of 20% or more and less than 40%) | 5 (Herbicidal ratio of 90% or more (almost completely withered)) | 4 (Herbicidal ratio of 70% or more and less than 90%) |
| CCSc1nnc2c(C(=O)Nc3ncnn3C)ccc(C(F)(F)F)n12 [4-003] |  |  |  |  |  |  |  | 0 (Herbicidal ratio of 5% or less (almost no effect)) | 2 (Herbicidal ratio of 20% or more and less than 40%) | 0 (Herbicidal ratio of 5% or less (almost no effect)) |
